The data set is described as follows: Hydrophilicity test (dispersion). In kind it is physicochemical.

Each structure is given as a SMILES string.

`CC(=O)O[C@H]1C(=O)[C@@]2(C)[C@H]([C@H](OC(=O)c3ccccc3)[C@]3(O)C[C@H](OC(=O)[C@H](O)[C@@H](NC(=O)c4ccccc4)c4ccccc4)C(C)=C1C3(C)C)[C@]1(OC(C)=O)CO[C@@H]1C[C@@H]2O` [paclitaxel]: the “dispersion (hydrophilicity)” value was 0.4 µg/mL.

The values above are taken from US8846644B2, “Phosphate-containing nanoparticle delivery vehicle” (priority 2009, dated 2014).
